Measurements: ChEMBL document CHEMBL5291721, “A preclinical secondary pharmacology resource illuminates target-adverse drug reaction associations of marketed drugs” (Nat Commun, 2023)

Tests used:
Androgen receptor = target: T1, Androgen receptor (Homo sapiens, UniProt P10275)
T1 sequence (P10275 whole entry): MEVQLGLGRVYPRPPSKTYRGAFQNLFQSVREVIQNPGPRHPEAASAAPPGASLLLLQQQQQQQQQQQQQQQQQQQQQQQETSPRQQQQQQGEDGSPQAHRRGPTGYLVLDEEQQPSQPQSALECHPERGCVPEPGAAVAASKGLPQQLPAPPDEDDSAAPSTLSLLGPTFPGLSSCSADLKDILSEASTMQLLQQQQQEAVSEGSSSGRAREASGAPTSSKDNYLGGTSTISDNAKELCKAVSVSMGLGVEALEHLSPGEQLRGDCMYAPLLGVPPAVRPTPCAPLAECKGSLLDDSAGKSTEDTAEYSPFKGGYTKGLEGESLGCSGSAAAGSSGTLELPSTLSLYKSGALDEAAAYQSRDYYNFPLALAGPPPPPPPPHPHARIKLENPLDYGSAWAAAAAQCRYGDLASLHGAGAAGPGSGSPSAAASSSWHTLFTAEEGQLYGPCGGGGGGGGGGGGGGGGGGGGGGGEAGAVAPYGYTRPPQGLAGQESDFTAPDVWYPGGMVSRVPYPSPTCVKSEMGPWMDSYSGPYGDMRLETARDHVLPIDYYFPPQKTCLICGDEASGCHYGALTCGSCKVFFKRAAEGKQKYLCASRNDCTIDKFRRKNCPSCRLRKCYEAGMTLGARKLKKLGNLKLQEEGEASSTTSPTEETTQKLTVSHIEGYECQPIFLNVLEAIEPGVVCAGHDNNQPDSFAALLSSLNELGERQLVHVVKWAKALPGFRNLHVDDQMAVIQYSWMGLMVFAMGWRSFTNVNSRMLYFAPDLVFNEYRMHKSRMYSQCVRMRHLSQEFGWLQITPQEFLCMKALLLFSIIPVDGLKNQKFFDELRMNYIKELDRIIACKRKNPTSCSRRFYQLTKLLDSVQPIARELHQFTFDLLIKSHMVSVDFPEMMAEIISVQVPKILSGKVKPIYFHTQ

[1] = target: T2, Muscarinic acetylcholine receptor M1 (Homo sapiens, UniProt P11229); format: functional, cell-based
T2 sequence (P11229 whole entry): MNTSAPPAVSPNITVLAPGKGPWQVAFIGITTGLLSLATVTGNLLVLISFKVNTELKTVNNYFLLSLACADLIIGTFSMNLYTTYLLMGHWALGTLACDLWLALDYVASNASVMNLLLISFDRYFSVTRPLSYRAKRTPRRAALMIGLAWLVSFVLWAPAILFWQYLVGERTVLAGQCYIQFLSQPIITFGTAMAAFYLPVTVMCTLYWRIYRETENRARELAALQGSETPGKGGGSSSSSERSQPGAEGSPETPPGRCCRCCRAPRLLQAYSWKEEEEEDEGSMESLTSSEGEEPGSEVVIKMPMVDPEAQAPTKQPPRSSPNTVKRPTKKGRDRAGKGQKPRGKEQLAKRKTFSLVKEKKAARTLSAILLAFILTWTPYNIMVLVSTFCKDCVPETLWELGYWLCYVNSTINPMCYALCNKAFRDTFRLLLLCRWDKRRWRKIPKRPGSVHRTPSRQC

[2] = target: T2, Muscarinic acetylcholine receptor M1; format: functional, cell-based; remark: listed apart in the source
D(1A) dopamine receptor [3] = target: T3, D(1A) dopamine receptor (Homo sapiens, UniProt P21728)
T3 sequence (P21728 whole entry): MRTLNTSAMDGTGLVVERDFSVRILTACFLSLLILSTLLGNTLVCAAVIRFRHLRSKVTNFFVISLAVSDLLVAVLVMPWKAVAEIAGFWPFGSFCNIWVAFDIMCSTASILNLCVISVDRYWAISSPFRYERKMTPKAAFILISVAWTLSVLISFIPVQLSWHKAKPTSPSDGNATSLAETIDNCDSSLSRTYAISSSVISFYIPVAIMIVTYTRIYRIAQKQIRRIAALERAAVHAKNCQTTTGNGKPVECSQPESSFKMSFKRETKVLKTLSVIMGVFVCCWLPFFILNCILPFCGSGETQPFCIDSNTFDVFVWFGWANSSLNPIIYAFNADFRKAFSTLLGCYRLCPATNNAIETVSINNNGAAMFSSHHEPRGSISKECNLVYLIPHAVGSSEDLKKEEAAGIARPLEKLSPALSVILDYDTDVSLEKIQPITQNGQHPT

[4] = target: Gamma-aminobutyric acid receptor subunit alpha-1 (Rattus norvegicus, UniProt P62813)
Sequence of Gamma-aminobutyric acid receptor subunit alpha-1 (P62813 whole entry): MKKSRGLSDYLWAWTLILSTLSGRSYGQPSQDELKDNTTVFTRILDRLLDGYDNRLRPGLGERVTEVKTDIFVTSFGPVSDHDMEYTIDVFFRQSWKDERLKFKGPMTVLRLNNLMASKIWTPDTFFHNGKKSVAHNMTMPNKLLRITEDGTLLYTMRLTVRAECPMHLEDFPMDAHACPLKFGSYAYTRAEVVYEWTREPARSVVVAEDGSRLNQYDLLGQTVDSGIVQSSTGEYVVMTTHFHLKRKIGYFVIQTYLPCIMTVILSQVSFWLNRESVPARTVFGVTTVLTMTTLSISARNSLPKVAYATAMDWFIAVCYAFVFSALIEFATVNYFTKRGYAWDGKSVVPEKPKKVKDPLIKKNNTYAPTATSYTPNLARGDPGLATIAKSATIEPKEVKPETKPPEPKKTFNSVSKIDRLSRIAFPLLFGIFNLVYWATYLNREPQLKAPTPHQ

D(1A) dopamine receptor [5] = target: T3, D(1A) dopamine receptor; format: functional, cell-based
[6] = target: Glutamate receptor ionotropic, NMDA 1 (Rattus norvegicus, UniProt P35439)
[7] = target: T4, 5-hydroxytryptamine receptor 3A (Homo sapiens, UniProt P46098); format: functional
T4 sequence (P46098 whole entry): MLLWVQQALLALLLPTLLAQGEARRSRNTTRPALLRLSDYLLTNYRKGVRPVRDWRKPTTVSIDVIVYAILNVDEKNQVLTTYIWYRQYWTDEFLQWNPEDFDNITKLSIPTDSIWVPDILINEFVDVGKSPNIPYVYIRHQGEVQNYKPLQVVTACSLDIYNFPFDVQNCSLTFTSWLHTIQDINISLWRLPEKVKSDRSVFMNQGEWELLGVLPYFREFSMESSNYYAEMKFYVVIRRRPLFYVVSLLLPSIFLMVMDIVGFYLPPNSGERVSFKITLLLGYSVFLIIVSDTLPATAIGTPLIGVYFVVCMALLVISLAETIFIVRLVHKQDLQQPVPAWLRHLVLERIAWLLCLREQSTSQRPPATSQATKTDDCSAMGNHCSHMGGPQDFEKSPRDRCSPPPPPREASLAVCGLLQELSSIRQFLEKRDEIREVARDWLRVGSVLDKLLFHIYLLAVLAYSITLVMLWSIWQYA

[8] = target: cGMP-inhibited 3',5'-cyclic phosphodiesterase 3A (Homo sapiens, UniProt Q14432); format: functional
Sequence of cGMP-inhibited 3',5'-cyclic phosphodiesterase 3A (Q14432 whole entry): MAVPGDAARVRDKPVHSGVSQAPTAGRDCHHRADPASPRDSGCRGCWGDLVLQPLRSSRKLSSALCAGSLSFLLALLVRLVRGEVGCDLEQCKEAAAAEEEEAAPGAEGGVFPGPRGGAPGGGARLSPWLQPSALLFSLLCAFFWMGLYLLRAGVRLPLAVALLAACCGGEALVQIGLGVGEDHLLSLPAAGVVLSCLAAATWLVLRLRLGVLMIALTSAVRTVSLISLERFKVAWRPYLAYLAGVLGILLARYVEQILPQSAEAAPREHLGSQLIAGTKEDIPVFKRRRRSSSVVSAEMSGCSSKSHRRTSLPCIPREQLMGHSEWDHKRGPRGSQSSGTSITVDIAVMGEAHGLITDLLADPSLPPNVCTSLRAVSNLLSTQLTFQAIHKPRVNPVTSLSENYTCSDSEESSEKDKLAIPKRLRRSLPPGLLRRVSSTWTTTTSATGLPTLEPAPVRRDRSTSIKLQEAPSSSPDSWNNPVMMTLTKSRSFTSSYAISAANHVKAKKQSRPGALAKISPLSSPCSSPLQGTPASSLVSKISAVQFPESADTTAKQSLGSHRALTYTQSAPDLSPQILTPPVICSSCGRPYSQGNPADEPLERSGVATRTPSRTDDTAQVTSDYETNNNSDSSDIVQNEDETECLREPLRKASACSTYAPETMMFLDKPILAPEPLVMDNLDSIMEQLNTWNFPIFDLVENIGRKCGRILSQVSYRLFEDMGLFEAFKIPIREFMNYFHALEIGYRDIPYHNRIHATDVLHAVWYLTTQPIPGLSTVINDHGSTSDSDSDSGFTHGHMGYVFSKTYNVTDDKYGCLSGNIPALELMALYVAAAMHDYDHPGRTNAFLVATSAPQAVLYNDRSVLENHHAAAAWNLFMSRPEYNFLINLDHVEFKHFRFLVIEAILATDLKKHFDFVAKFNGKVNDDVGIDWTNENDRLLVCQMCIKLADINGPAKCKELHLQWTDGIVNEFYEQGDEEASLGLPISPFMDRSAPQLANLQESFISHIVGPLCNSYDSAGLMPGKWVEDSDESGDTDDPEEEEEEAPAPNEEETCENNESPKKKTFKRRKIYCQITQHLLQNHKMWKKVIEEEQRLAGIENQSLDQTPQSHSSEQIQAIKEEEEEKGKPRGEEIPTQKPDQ

[9] = target: Gamma-aminobutyric acid receptor subunit alpha-1/alpha-2/beta-2/gamma-2 (Homo sapiens, UniProt P14867+P18507+P47869+P47870); format: protein-complex assay
Sequence of Gamma-aminobutyric acid receptor subunit alpha-1/alpha-2/beta-2/gamma-2 (P14867 whole entry): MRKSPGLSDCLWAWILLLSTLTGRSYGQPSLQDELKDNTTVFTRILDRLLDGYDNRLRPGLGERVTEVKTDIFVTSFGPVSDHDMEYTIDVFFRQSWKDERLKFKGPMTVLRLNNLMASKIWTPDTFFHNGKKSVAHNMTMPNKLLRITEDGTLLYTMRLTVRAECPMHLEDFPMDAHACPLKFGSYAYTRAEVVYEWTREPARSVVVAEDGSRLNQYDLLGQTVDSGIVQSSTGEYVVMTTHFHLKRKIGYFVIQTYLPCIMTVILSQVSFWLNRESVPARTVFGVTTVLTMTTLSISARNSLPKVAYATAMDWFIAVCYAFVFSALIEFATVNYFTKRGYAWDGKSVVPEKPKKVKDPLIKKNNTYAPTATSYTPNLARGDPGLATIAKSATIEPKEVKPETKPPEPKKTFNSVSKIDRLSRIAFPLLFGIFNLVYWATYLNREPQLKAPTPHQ
Sequence of Gamma-aminobutyric acid receptor subunit alpha-1/alpha-2/beta-2/gamma-2 (P47870 whole entry): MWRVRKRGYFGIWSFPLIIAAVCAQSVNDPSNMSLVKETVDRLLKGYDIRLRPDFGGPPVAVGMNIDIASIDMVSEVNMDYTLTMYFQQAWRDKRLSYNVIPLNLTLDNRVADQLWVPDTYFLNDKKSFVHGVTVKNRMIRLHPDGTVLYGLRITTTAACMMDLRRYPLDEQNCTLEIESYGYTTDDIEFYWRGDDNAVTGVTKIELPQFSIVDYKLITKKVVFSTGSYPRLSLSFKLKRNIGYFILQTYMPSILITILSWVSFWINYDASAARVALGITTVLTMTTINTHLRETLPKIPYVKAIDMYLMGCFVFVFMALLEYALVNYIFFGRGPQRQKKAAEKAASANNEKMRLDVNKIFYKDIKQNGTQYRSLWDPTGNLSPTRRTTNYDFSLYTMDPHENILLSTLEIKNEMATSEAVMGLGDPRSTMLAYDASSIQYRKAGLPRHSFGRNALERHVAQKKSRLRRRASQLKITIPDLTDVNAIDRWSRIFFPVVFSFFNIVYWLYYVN
Sequence of Gamma-aminobutyric acid receptor subunit alpha-1/alpha-2/beta-2/gamma-2 (P18507 whole entry): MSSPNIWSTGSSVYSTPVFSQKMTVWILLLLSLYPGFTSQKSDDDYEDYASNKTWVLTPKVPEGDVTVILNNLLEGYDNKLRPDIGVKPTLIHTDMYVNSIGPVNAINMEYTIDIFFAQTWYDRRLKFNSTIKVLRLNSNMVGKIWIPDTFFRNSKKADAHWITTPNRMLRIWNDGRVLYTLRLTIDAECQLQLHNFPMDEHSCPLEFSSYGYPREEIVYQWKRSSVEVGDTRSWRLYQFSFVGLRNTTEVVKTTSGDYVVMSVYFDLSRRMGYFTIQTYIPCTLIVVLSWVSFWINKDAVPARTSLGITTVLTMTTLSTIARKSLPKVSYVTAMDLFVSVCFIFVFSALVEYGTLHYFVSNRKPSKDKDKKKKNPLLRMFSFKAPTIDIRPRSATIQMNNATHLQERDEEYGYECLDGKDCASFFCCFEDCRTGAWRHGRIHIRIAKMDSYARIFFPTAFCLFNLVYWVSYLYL
Sequence of Gamma-aminobutyric acid receptor subunit alpha-1/alpha-2/beta-2/gamma-2 (P47869 whole entry): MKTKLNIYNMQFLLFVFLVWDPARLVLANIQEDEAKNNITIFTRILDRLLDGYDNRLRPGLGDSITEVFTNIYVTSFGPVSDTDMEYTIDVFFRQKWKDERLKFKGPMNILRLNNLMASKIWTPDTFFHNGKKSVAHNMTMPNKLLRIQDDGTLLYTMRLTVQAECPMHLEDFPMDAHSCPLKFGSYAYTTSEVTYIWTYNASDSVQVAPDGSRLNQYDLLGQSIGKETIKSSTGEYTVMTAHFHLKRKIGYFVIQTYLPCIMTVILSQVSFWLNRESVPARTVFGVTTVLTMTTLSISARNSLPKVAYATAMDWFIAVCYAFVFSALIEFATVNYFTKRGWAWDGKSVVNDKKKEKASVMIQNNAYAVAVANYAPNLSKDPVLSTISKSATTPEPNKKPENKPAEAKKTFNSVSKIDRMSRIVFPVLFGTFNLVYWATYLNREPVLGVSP

[10] = target: Sodium-dependent dopamine transporter (Homo sapiens, UniProt Q01959)
Sequence of Sodium-dependent dopamine transporter (Q01959 whole entry): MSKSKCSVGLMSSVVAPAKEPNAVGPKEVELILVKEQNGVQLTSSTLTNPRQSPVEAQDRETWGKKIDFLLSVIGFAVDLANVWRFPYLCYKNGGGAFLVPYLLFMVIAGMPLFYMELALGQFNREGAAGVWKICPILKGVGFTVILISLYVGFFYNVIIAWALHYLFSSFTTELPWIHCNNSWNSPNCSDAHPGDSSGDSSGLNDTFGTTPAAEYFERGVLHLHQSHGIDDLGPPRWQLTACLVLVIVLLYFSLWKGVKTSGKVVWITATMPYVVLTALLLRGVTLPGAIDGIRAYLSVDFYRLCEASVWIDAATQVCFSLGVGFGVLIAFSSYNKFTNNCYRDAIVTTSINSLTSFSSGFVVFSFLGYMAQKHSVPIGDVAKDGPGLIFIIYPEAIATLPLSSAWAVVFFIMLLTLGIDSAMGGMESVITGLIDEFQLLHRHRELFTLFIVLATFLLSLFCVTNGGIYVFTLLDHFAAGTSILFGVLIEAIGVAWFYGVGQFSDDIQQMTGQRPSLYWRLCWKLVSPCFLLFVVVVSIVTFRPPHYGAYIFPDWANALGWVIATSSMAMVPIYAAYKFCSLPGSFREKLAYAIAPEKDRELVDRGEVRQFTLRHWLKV

Melanocortin receptor 3 = Melanocortin receptor 3 (Homo sapiens, UniProt P41968)
Sequence of Melanocortin receptor 3 (P41968 whole entry): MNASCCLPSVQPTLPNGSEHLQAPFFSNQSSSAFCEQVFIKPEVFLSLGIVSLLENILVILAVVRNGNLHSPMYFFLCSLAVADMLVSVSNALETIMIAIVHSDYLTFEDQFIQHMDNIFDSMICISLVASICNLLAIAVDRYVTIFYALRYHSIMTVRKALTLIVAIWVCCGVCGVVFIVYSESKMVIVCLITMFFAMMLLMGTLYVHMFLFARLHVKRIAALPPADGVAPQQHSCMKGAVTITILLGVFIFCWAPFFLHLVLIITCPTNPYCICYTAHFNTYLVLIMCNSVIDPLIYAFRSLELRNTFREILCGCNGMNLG
Note: assay procedure not described here.

Compound	AC50 (Androgen receptor) [µM]	AC50 [1] [µM]	AC50 [2] [µM]	AC50 (D(1A) dopamine receptor [3]) [µM]	AC50 [4] [µM]	AC50 [9] [µM]	other results
CCOc1ccc(Cc2nccc3cc(OCC)c(OCC)cc23)cc1OCC [ETHAVERINE]	> 30	> 30	1.66	8.59	> 30	–	–
O=NN(CCCl)C(=O)NCCCl [CARMUSTINE]	> 30	–	–	> 30	> 30	–	–
CC(C)(C)NCC(O)COc1ccccc1C#N (stereo unspecified) [BUNITROLOL]	> 30	> 30	> 30	> 30	> 30	–	AC50 (D(1A) dopamine receptor [5]): > 30 µM; AC50 [6]: > 30 µM; AC50 [7]: > 30 µM; AC50 [8]: > 30 µM
Cc1c(C(C)C)c(=O)n(-c2ccccc2)n1C [PROPYPHENAZONE]	–	> 30	> 30	> 30	–	> 30	–
[H]/N=C(/N)NS(=O)(=O)c1ccc(N)cc1 [SULFAGUANIDINE]	> 30	> 30	> 30	> 30	> 30	–	–
CC(C)N1CCN(c2ccc(OCC3COC(Cn4cncn4)(c4ccc(Cl)cc4Cl)O3)cc2)CC1 (stereo unspecified) [TERCONAZOLE]	–	–	–	25.2	–	> 30	–
C[C@@H](O)[C@H]1C(=O)N2C(C(=O)O)=C(S[C@@H]3CN[C@H](C(=O)Nc4cccc(C(=O)O)c4)C3)[C@H](C)[C@H]12	> 30	–	–	> 30	> 30	–	–
C[C@@H]1CN(c2c(F)c(N)c3c(=O)c(C(=O)O)cn(C4CC4)c3c2F)C[C@H](C)N1 [SPARFLOXACIN]	–	–	–	> 30	–	> 30	–
N[C@@H](Cc1ccc(N(CCCl)CCCl)cc1)C(=O)O	–	–	–	> 30	–	> 30	–
C[C@H]1C[C@H]2[C@@H]3CCC4=CC(=O)C=C[C@]4(C)[C@@]3(F)[C@@H](O)C[C@]2(C)[C@@]1(O)C(=O)CO [BETAMETHASONE]	–	–	–	> 30	–	> 30	–
Cc1ccc(O)c([C@H](CCN(C(C)C)C(C)C)c2ccccc2)c1 [TOLTERODINE]	–	> 30	0.0206	> 30	> 30	> 30	AC50 (D(1A) dopamine receptor [5]): > 10 µM; AC50 [6]: > 10 µM; AC50 [7]: > 10 µM; AC50 [10]: > 10 µM
CN1CCCC(CC2c3ccccc3Sc3ccccc32)C1 (stereo unspecified) [METHIXENE]	–	> 30	0.0109	2.03	–	> 30	–
NS(=O)(=O)c1cc2c(cc1Cl)NC(C(Cl)Cl)NS2(=O)=O (stereo unspecified) [TRICHLORMETHIAZIDE]	–	–	–	> 30	–	> 30	–
Cc1ccc(Cl)c(Nc2ccccc2C(=O)O)c1Cl [MECLOFENAMIC ACID]	–	–	–	> 30	–	> 3	–
Nc1ccc(C(=O)NCC(=O)O)cc1 [AMINOHIPPURIC ACID]	–	> 30	> 30	> 30	–	> 30	–
O=c1[nH]c(=O)n([C@H]2C[C@H](O)[C@@H](CO)O2)cc1/C=C/Br [BRIVUDINE]	–	> 30	> 30	> 30	–	> 30	–
CCCCC(=O)O[C@H]1CC[C@H]2[C@@H]3CCc4cc(O)ccc4[C@H]3CC[C@]12C [ESTRADIOL VALERATE]	–	> 30	23.1	> 30	–	> 10	–

Compound	AC50 (Androgen receptor) [µM]	AC50 [1] [µM]	AC50 [2] [µM]	AC50 (D(1A) dopamine receptor [3]) [µM]	AC50 [4] [µM]	AC50 [9] [µM]	other results
NC(=O)N/N=C/c1ccc([N+](=O)[O-])o1 [NITROFURAZONE]	–	> 30	> 30	> 30	> 30	> 30	–
CC(=O)OCC(=O)[C@@]1(OC(C)=O)[C@@H](C)C[C@H]2[C@@H]3C[C@H](F)C4=CC(=O)C=C[C@]4(C)[C@@]3(F)[C@@H](O)C[C@@]21C [DIFLORASONE DIACETATE]	–	–	–	> 30	–	> 30	–
COc1c(OCCCN2CCOCC2)ccc2c1N=C(NC(=O)c1cnc(N)nc1)N1CCN=C21 [COPANLISIB]	> 30	> 30	> 30	> 30	> 30	–	–
Cc1ncc(CO)c(CO)c1O [PYRIDOXINE]	–	> 30	> 30	> 30	> 30	> 30	–
CC(=O)O[C@]1(C(C)=O)CC[C@H]2[C@@H]3CCC4=CC(=O)CCC4=C3[C@@H](c3ccc(N(C)C)cc3)C[C@@]21C [ULIPRISTAL ACETATE]	0.03	> 30	> 30	> 30	> 30	–	–
C#C[C@]1(OC(C)=O)CC[C@H]2[C@@H]3CCC4=CC(=O)CC[C@@H]4[C@H]3CC[C@@]21C [NORETHINDRONE ACETATE]	–	–	–	> 30	–	> 10	–
COc1ncnc(NS(=O)(=O)c2ccc(N)cc2)c1OC [SULFADOXINE]	–	–	–	> 30	> 30	> 30	–
Cc1cnc(C(=O)O)c[n+]1[O-] [ACIPIMOX]	–	> 30	> 30	> 30	–	> 30	–
CC1(C)C[C@@H]1C(=O)N/C(=C\CCCCSC[C@H](N)C(=O)O)C(=O)O [CILASTATIN]	> 30	> 30	> 30	> 30	> 30	–	–
CC(CN(C)C)CN1c2ccccc2CCc2ccccc21 (stereo unspecified) [TRIMIPRAMINE]	–	–	–	–	–	> 30	–
Nc1ccn(C[C@@H](CO)OCP(=O)(O)O)c(=O)n1 [CIDOFOVIR]	–	> 30	> 30	> 30	–	> 30	–
CC(O)(CC(=O)O)CC(=O)O [MEGLUTOL]	> 30	> 30	9.87	> 30	> 30	–	–
CCn1c(=O)c2c(nc(/C=C/c3ccc(OC)c(OC)c3)n2C)n(CC)c1=O [ISTRADEFYLLINE]	–	> 30	> 30	> 30	–	> 30	AC50 (Melanocortin receptor 3): > 30 µM; AC50 [10]: > 30 µM; AC50 [8]: > 30 µM
OC(CN1CCCCC1)c1cc(-c2ccccc2)on1 (stereo unspecified) [PERISOXAL]	> 30	–	–	3.82	> 30	–	–
CC1(C)S[C@@H]2[C@H](NC(=O)[C@H](NC(=O)c3cnc4cccnc4c3O)c3ccccc3)C(=O)N2[C@H]1C(=O)O [APALCILLIN]	> 30	> 30	> 30	> 30	1.25	–	–
COc1cc(C[C@@H]2NCCc3cc(O)c(O)cc32)cc(OC)c1OC [TRETOQUINOL]	–	> 30	> 30	4.72	–	> 30	–
